The results in this text go back to US20220233561A1, “HUMAN MILK OLIGOSACCHARIDES FOR USE IN THE TREATMENT OF SYMPTOMS IN A PATIENT SUFFERING FROM NON-COELIAC WHEAT AND / OR GLUTEN SENSITIVITY” (GLYCOM A/S, priority 2016, published 2022).

Common to all, as to assay type: cell-based
Common to all, as to settings: 5 mg HMO/ml, compared to control cultures

The test system of assay [1] is MUC2 expression in human LS174T cells. Nature of the assay: Example 3: goblet cell gene expression by quantitative RT-PCR, MUC2. On the procedure:
(§1) 2′-FL and LNnT are tested with respect to their ability to induce MUC2, TFF3, EIMβ, CHST5, and GAL3ST2 expression in the human LS174T cell culture model of goblet cells. The human LS174T cell line is obtained from the American Type Culture Collection (ATCC). LS174T cells are maintained in minimum essential medium (MEM) supplemented according to instructions at 37° C. in air containing 5% of CO2. 2′-FL and LNnT are dissolved in cell culture grade water to the required concentration. The LS174T cells are treated with the HMO solution containing 0 or 5 mg HMO/ml. The LS174T cells are collected and suspended in Trizol reagent and total RNA is isolated using an RNA analysis kit (Qiagen) according to the manufacturer's instructions and the RNA isolates are quantified using Nanodrop analysis (Thermo Fisher Scientific). RNA isolates are reverse transcribed using a high capacity cDNA Reverse Transcription Kit (Applied Biosystems) to create cDNA, which is then used to assess gene expression via quantitative RT-PCR. For the quantitative RT-PCR, specific TaqMAN gene expression assays are obtained from Applied Biosystems, which include expression assays for MUC2, TFF3, CHST5 and GAL3ST2. Quantitative real-time PCR is performed using TaqMAN PCR Master Mix (Applied Biosystems). […] The results are analysed using SDS 2.3 software and calculated by delta Ct method. […]

Assay [2] deals with TFF3 expression in human LS174T cells. Briefly: Example 3: goblet cell gene expression by quantitative RT-PCR, TFF3. How it is done:
as §1

In assay [3] the test system is CHST5 expression in human LS174T cells. Briefly: Example 3: goblet cell gene expression by quantitative RT-PCR, CHST5. How it is done: as §1
The test system of assay [4] is GAL3ST2 expression in human LS174T cells. Nature of the assay: Example 3: goblet cell gene expression by quantitative RT-PCR, GAL3ST2. How it is done: as §1

Turning to `CC(=O)N[C@H]1[C@H](O[C@H]2[C@@H](O)[C@@H](CO)O[C@@H](O[C@H]3[C@H](O)[C@@H](O)C(O)O[C@@H]3CO)[C@@H]2O)O[C@H](CO)[C@@H](O[C@@H]2O[C@H](CO)[C@H](O)[C@H](O)[C@H]2O)[C@@H]1O` (mixture of isomers) [LNnT, lacto-N-neotetraose], in assay [1], the MUC2 gene expression result is “increases the expression”. The TFF3 gene expression result in assay [2] was “increases the expression”. Besides, the CHST5 gene expression entry in assay [3] was “minimal induction”. For the same compound, the GAL3ST2 gene expression result in assay [4] was “lack of induction”.
